Experimental data reported in US20190367516A1 (Bayer Pharma Aktiengesellschaft, priority 2015, published 2019).

Biological target: T1, human M2 receptor (Homo sapiens, UniProt P08172)
T1 sequence (P08172 1-466): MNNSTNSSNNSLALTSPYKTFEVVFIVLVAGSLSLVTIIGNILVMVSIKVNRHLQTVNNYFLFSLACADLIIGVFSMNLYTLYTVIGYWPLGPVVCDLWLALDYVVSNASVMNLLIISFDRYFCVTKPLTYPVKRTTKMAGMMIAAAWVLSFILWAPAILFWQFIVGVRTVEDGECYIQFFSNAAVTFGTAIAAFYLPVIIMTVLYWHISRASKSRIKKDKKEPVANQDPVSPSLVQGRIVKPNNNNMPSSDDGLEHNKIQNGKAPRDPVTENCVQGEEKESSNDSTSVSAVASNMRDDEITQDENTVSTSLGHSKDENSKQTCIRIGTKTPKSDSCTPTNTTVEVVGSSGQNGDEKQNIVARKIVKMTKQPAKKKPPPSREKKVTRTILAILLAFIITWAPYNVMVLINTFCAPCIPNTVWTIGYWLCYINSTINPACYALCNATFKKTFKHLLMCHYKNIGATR
Conditions: Receptor activity EC50, M2-GIRK1/4 activation test, acetylcholine at EC20; allosteric potency; in some cases mean values from two or more determinations

SMILES	EC50 [nM]
CN(C)c1ccc2c(=O)c(C(=O)NC(C)(C)c3c(F)cccc3F)cn(-c3ccc(F)cc3F)c2n1 [Example 53, 1-(2,4-Difluorophenyl)-N-[2-(2,6-difluorophenyl)propan-2-yl]-7-(dimethylamino)-4-oxo-1,4-dihydro-1,8-naphthyridine-3-carboxamide]	58
O=C(NC12CC3CC(CC(F)(C3)C1)C2)c1cn(-c2ccc(F)cc2F)c2nc(N3CC[C@H](F)C3)ccc2c1=O [Example 62, 1-(2,4-Difluorophenyl)-7-[(3S,)-3-fluoropyrrolidin-1-yl]-N-(3-fluorotricyclo[3.3.1.1^3,7]dec-1-yl)-4-oxo-1,4-dihydro-1,8-naphthyridine-3-carboxamide]	17
O=C(NC1(C(F)(F)F)CC1)c1cn(-c2ccc(F)cc2F)c2nc(N3CC[C@H](F)C3)ccc2c1=O [Example 68, 1-(2,4-Difluorophenyl)-7-[(3S)-3-fluoropyrrolidin-1-yl]-4-oxo-N-[1-(trifluormethyl)cyclopropyl]-1,4-dihydro-1,8-naphthyridine-3-carboxamide]	58
O=C(NC12CC3CC(CC(C3)C1)C2)c1cn(-c2ccc(F)cc2F)c2nc(N3CC[C@@H](F)C3)ccc2c1=O [Example 72, 1-(2,4-Difluorophenyl)-7-[(3R)-3-fluoropyrrolidin-1-yl]-4-oxo-N-(tricyclo[3.3.1.1^3,7]dec-1-yl)-1,4-dihydro-1,8-naphthyridine-3-carboxamide]	53
O=C(NC12CC3CC(CC(C3)C1)C2)c1cn(-c2ccc(F)cc2F)c2nc(N3CCC(F)(F)C3)ccc2c1=O [Example 73, 1-(2,4-Difluorophenyl)-7-(3,3-difluoropyrrolidin-1-yl)-4-oxo-N-(tricyclo[3.3.1.1^3,7]dec-1-yl)-1,4-dihydro-1,8-naphthyridine-3-carboxamide]	73
O=C(NC12CC3CC(CC(C3)C1)C2)c1cn(-c2ccc(F)cc2F)c2nc(N3CC(F)(F)C(F)(F)C3)ccc2c1=O [Example 77, 1-(2,4-Difluorophenyl)-4-oxo-7-(3,3,4,4-tetrafluoropyrrolidin-1-yl)-N-(tricyclo[3.3.1.1^3,7]dec-1-yl)-1,4-dihydro-1,8-naphthyridine-3-carboxamide]	666
O=C(NC12CC3CC(CC(C3)C1)C2)c1cn(-c2ccc(F)cc2F)c2nc(NCCO)ccc2c1=O [Example 79, 1-(2,4-Difluorophenyl)-7-[(2-hydroxyethyl)amino]-4-oxo-N-(tricyclo[3.3.1.1^3,7]dec-1-yl)-1,4-dihydro-1,8-naphthyridine-3-carboxamide]	144
CC(C)CC(NC(=O)c1cn(-c2ccc(F)cc2F)c2nc(NCCO)ccc2c1=O)C(F)(F)F (stereo not drawn) [Example 80, 1-(2,4-Difluorophenyl)-7-[(2-hydroxyethyl)amino]-4-oxo-N-[1,1,1-trifluoro-4-methylpentan-2-yl]-1,4-dihydro-1,8-naphthyridine-3-carboxamide]	73
CN(CCO)c1ccc2c(=O)c(C(=O)NC34CC5CC(CC(C5)C3)C4)cn(-c3ccc(F)cc3F)c2n1 [Example 82, 1-(2,4-Difluorophenyl)-7-[(2-hydroxyethyl)(methyl)amino]-4-oxo-N-(tricyclo[3.3.1.1^3,7]dec-1-yl)-1,4-dihydro-1,8-naphthyridine-3-carboxamide]	60
O=C(NC12CC3CC(CC(C3)C1)C2)c1cn(-c2ccc(F)cc2F)c2nc(NCCF)ccc2c1=O [Example 83, 1-(2,4-Difluorophenyl)-7-[(2-fluoroethyl)amino]-4-oxo-N-(tricyclo[3.3.1.1^3,7]dec-1-yl)-1,4-dihydro-1,8-naphthyridine-3-carboxamide]	110
CC(C)CC(NC(=O)c1cn(-c2ccc(F)cc2F)c2nc(NCCF)ccc2c1=O)C(F)(F)F (stereo not drawn) [Example 88]	42
O=C(NC12CC3CC(F)(CC(F)(C3)C1)C2)c1cn(-c2ccc(F)cc2F)c2nc(NCC(F)(F)F)ccc2c1=O [Example 92, 1-(2,4-Difluorophenyl)-N-(3,5-difluorotricyclo[3.3.1.1^3,7]dec-1-yl)-4-oxo-7-[(2,2,2-trifluoroethyl)amino]-1,4-dihydro-1,8-naphthyridine-3-carboxamide]	174
CN(CCF)c1ccc2c(=O)c(C(=O)NC34CC5CC(CC(C5)C3)C4)cn(-c3ccc(F)cc3F)c2n1 [Example 101, 1-(2,4-Difluorophenyl)-7-[(2-fluoroethyl)(methyl)amino]-4-oxo-N-(tricyclo[3.3.1.1^3,7]dec-1-yl)-1,4-dihydro-1,8-naphthyridine-3-carboxamide]	26
CN(CCF)c1ccc2c(=O)c(C(=O)NC34CC5CC(CC(F)(C5)C3)C4)cn(-c3ccc(F)cc3F)c2n1 [Example 102, 1-(2,4-Difluorophenyl)-7-[(2-fluoroethyl)(methyl)amino]-N-(3-fluorotricyclo[3.3.1.1^3,7]dec-1-yl)-4-oxo-1,4-dihydro-1,8-naphthyridine-3-carboxamide]	31

The remaining lines, values ahead:

EC50 [nM]	SMILES
85	Cc1cccc(C)c1NC(=O)c1cn(-c2ccc(F)cc2F)c2nc(N(C)C)ccc2c1=O [Example 54, 1-(2,4-Difluorophenyl)-7-(dimethylamino)-N-(2,6-dimethylphenyl)-4-oxo-1,4-dihydro-1,8-naphthyridine-3-carboxamide]
36	CN(C)c1ccc2c(=O)c(C(=O)Nc3c(Cl)cccc3Cl)cn(-c3ccc(F)cc3F)c2n1 [Example 55, N-(2,6-Dichlorophenyl)-1-(2,4-difluorophenyl)-7-(dimethylamino)-4-oxo-1,4-dihydro-1,8-naphthyridine-3-carboxamide]
16	O=C(NC12CC3CC(CC(C3)C1)C2)c1cn(-c2ccc(F)cc2F)c2nc(N3CC[C@H](F)C3)ccc2c1=O [Example 61, 1-(2,4-Difluorophenyl)-7-[(3S)-3-fluoropyrrolidin-1-yl]-4-oxo-N-(tricyclo[3.3.1.1^3,7]dec-1-yl)-1,4-dihydro-1,8-naphthyridine-3-carboxamide]
40	O=C(NC12CCC(F)(CC1)CC2)c1cn(-c2ccc(F)cc2F)c2nc(N3CC[C@H](F)C3)ccc2c1=O [Example 63, 1-(2,4-Difluorophenyl)-N-(4-fluorobicyclo[2.2.2]oct-1-yl)-7-[(3S)-3-fluoropyrrolidin-1-yl]-4-oxo-1,4-dihydro-1,8-naphthyridine-3-carboxamide]
10	CCCC(NC(=O)c1cn(-c2ccc(F)cc2F)c2nc(N3CC[C@H](F)C3)ccc2c1=O)C(F)(F)F (stereo partly drawn) [Example 66, 1-(2,4-Difluorophenyl)-7-[(3S)-3-fluoropyrrolidin-1-yl]-4-oxo-N-[1,1,1-trifluoropentan-2-yl]-1,4-dihydro-1,8-naphthyridine-3-carboxamide]
138	O=C(NCC(F)(F)F)c1cn(-c2ccc(F)cc2F)c2nc(N3CC[C@H](F)C3)ccc2c1=O [Example 67, 1-(2,4-Difluorophenyl)-7-[(3S)-3-fluoropyrrolidin-1-yl]-4-oxo-N-(2,2,2-trifluoroethyl)-1,4-dihydro-1,8-naphthyridine-3-carboxamide]
13	CC(C)C(NC(=O)c1cn(-c2ccc(F)cc2F)c2nc(N3CC[C@H](F)C3)ccc2c1=O)C(F)(F)F (stereo partly drawn) [Example 69, 1-(2,4-Difluorophenyl)-7-[(3S)-3-fluoropyrrolidin-1-yl]-4-oxo-N-[1,1,1-trifluoro-3-methylbutan-2-yl]-1,4-dihydro-1,8-naphthyridine-3-carboxamide]
73	CC[C@H](NC(=O)c1cn(-c2ccc(F)cc2F)c2nc(N3CCC(F)(F)C3)ccc2c1=O)C(F)(F)F [Example 75, 1-(2,4-Difluorophenyl)-7-(3,3-difluoropyrrolidin-1-yl)-4-oxo-N-[(2S)-1,1,1-trifluorobutan-2-yl]-1,4-dihydro-1,8-naphthyridine-3-carboxamide]
79	CC(C)CC(NC(=O)c1cn(-c2ccc(F)cc2F)c2nc(N3CCS(=O)(=O)C3)ccc2c1=O)C(F)(F)F (stereo not drawn) [Example 78, 1-(2,4-Difluorophenyl)-7-(1,1-dioxido-1,3-thiazolidin-3-yl)-4-oxo-N-[1,1-trifluoro-4-methylpentan-2-yl]-1,4-dihydro-1,8-naphthyridine-3-carboxamide]
102	CCCC(NC(=O)c1cn(-c2ccc(F)cc2F)c2nc(NCCO)ccc2c1=O)C(F)(F)F (stereo not drawn) [Example 81, 1-(2,4-Difluorophenyl)-7-[(2-hydroxyethyl)amino]-4-oxo-N-[1,1,1-trifluoropentan-2-yl]-1,4-dihydro-1,8-naphthyridine-3-carboxamide]
58	O=C(NC12CC3CC(CC(F)(C3)C1)C2)c1cn(-c2ccc(F)cc2F)c2nc(NCC(F)(F)F)ccc2c1=O [Example 91, 1-(2,4-Difluorophenyl)-N-(3-fluorotricyclo[3.3.1.1^3,7]dec-1-yl)-4-oxo-7-[(2,2,2-trifluoroethyl)amino]-1,4-dihydro-1,8-naphthyridine-3-carboxamide]
164	CC[C@@H](NC(=O)c1cn(-c2ccc(F)cc2F)c2nc(NCC(F)(F)F)ccc2c1=O)C(F)(F)F [Example 94, 1-(2,4-Difluorophenyl)-4-oxo-N-[(2R)-1,1,1-trifluorobutan-2-yl]-7-[(2,2,2-trifluoroethyl)amino]-1,4-dihydro-1,8-naphthyridine-3-carboxamide]
134	O=C(NC1(C(F)(F)F)CCCC1)c1cn(-c2ccc(F)cc2F)c2nc(NCC(F)(F)F)ccc2c1=O [Example 96, 1-(2,4-Difluorophenyl)-4-oxo-7-[(2,2,2-trifluoroethyl)amino]-N-[1-(trifluoromethyl)cyclopentyl]-1,4-dihydro-1,8-naphthyridine-3-carboxamide]
